# Measurements reported in publication PMC11571207, “Stereorandomized Oncocins with Preserved Ribosome Binding and Antibacterial Activity” (Journal of Medicinal Chemistry, 2024).
# Like-named read-outs stand apart in the source and are kept apart here. No end group written: not given here.
# How the values were obtained:
# [1] = test system: A. baumannii ATCC19606; assay: microbe, parasite or virus in culture; conditions: for MIC A. baumannii, 12.5% MHB / MIC A. baumannii, Full MHB: A. baumannii ATCC19606; for MIC A. baumannii ATCC19606: supplement CSV; for MIC: Acinetobacter baumannii
# Method in brief: (§1)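 Read-out was visible growth after MTT addition, the MIC being the lowest inhibitory peptide concentration. Bacteria grown to log phase in LB were exposed in MH medium to peptide from 64 μg/mL in twofold dilutions for 15-18h at 37°C.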
# [2] = test system: E. coli W3110; assay: microbe, parasite or virus in culture; conditions: for MIC E. coli, 12.5% MHB / MIC E. coli, Full MHB: E. coli W3110; for MIC E. coli W3110: supplement CSV; for MIC: Escherichia coli
# Method in brief: as §1
# [3] = test system: K. pneumoniae NCTC 418; assay: microbe, parasite or virus in culture; conditions: for MIC K. pneumoniae, 12.5% MHB / MIC K. pneumoniae, Full MHB: K. pneumoniae NCTC 418; for MIC K. pneumoniae NCTC418: supplement CSV; for MIC: Klebsiella pneumoniae
# Method in brief: as §1
# [4] = test system: P. aeruginosa PAO1; assay: microbe, parasite or virus in culture; conditions: for MIC P. aeruginosa, 12.5% MHB / MIC P. aeruginosa, Full MHB: P. aeruginosa PAO1, 16–20 h at 37 °C; for MIC P. aeruginosa, 12.5% MHB: 12.5% Müller–Hinton medium; for MIC P. aeruginosa, Full MHB: full Müller–Hinton medium; for MIC P. aeruginosa PAO1: supplement CSV; for MIC: Pseudomonas aeruginosa
# Method in brief: as §1
# [5] = test system: S. aureus COL (MRSA); assay: microbe, parasite or virus in culture; conditions: for MIC S. aureus, 12.5% MHB / MIC S. aureus, Full MHB: S. aureus COL (MRSA), 16–20 h at 37 °C; for MIC S. aureus, 12.5% MHB: 12.5% Müller–Hinton medium; for MIC S. aureus, Full MHB: full Müller–Hinton medium; for MIC S. aureus COL (MRSA): supplement CSV; for MIC: Staphylococcus aureus, MRSA
# Method in brief: as §1
# [6] = test system: K. pneumoniae OXA-48; assay: microbe, parasite or virus in culture; conditions: for MIC K. pneumoniae OXA-48, 12.5% MHB / MIC K. pneumoniae OXA-48, full MHB: carbapenem-resistant; for MIC K. pneumoniae OXA-48: supplement CSV; for MIC: Klebsiella pneumoniae
# Method: Minimum inhibitory concentration assay
# Antimicrobial activity was assayed against P. aeruginosa PAO1, K. pneumoniae NCTC418, E. coli W3110, A. baumannii ATCC 19606, methicillin-resistant S. aureus COL (MRSA), and for selected peptides on P. aeruginosa PA14 and the polymyxin-B-resistant derivative PA14 2P4, as well as the clinical isolates ZEM-1A and ZEM9A, K. pneumoniae OXA-48, S. aureus Newman, Enterobacter cloacae and Burkholderia cenocepacia. The minimal inhibitory concentration (MIC) was determined by using broth microdilution method. A colo ny of bacteria was picked and grown in Luria-Bertani (LB) medium overnight at 37°C. For E. coli BW25113 sbmA::kan the medium was supplemented with 25 mg/L of kanamycin. The next day, the culture was then regrown in LB medium to log phase (OD600 = 0.6 to 0.8), which lasted approximately 4 h, and diluted to an OD600 of 0.022 in the desired medium. Stock solutions of 1 mg/mL of the samples were prepared in sterilized milliQ water and diluted to the beginning concentration of 64 μg/mL in 300 μL Mueller Hinton (MH)-medium. The diluted samples were added to first well of 96-well microtiter plate (TPP, untreated, Faust Laborbedarf, AG, Schaffhausen) and diluted serially by ½. Finally, 4 μL of the bacterial suspension was inoculated into the sample solutions (150 μL/well) with a final inoculation of about 5∙10^5 CFU/mL. The plates were then incubated at 37°C for 15-18h. For each assay, sterility (broth only) and growth control (broth with bacterial inoculum, without antibiotics) were checked with two columns in the plate. The next day, 15 μL of 3-(4,5-dimethylthiazol-2-yl)-2,5-diphenyltetrazolium bromide (MTT) was added to each well of the plate, such a way that MIC was defined as the lowest concentration of the peptide that inhibited visible growth of the tested
# [7] = test system: P. aeruginosa PA14 4.13 (phoQ); conditions: for MIC P. aeruginosa PA14 4.13 (phoQ), 12.5% MHB / MIC P. aeruginosa PA14 4.13 (phoQ), full MHB: polymyxin B resistant strain, 16–20 h at 37 °C; for MIC P. aeruginosa PA14 4.13 (phoQ), 12.5% MHB: 12.5% MHB pH 7.4; for MIC P. aeruginosa PA14 4.13 (phoQ), full MHB: full MHB pH 7.4; for MIC P. aeruginosa PA14 4.13: supplement CSV
# [8] = 12.5% Müller–Hinton medium, 16–20 h at 37 °C
# [9] = full Müller–Hinton medium, 16–20 h at 37 °C
# [10] = 12.5% Müller–Hinton medium, 16–20 h at 37 °C, broth microdilution
# [11] = full Müller–Hinton medium, 16–20 h at 37 °C, broth microdilution
# [12] = 12.5% MHB pH 7.4, 16–20 h at 37 °C
# [13] = full MHB pH 7.4, 16–20 h at 37 °C
compound,measurement,setting,value
VDKPPYLPRPRPPRRIYNR [sr5Cterm-Onc] (VDKPPYLPRPRPPRRIYNR-NH2; also: residues 15-19 stereorandomized (1:1 L/D mixture)),"MIC A. baumannii, 12.5% MHB",[1]; [8],4 µg/mL
same,"MIC A. baumannii, Full MHB",[1]; [9],32 µg/mL
same,MIC A. baumannii ATCC19606,[1]; 12.5% MH pH 7.4,4 µg/mL
same,MIC A. baumannii ATCC19606,[1]; full MH pH 7.4,32 µg/mL
same,"MIC E. coli, 12.5% MHB",[2]; [10],2 µg/mL
same,"MIC E. coli, Full MHB",[2]; [11],4 µg/mL
same,MIC E. coli W3110,[2]; 12.5% MH pH 7.4,2 µg/mL
same,MIC E. coli W3110,[2]; full MH pH 7.4,4 µg/mL
same,"MIC K. pneumoniae, 12.5% MHB",[3]; [8],2 / 2 μg/mL
same,"MIC K. pneumoniae, Full MHB",[3]; [9],2 / 2 μg/mL
same,MIC K. pneumoniae NCTC418,[3]; 12.5% MH pH 7.4,2 µg/mL
same,MIC K. pneumoniae NCTC418,[3]; full MH pH 7.4,2 µg/mL
same,"MIC P. aeruginosa, 12.5% MHB",[4],8 µg/mL
same,"MIC P. aeruginosa, Full MHB",[4],64 µg/mL
same,MIC P. aeruginosa PAO1,[4]; 12.5% MH pH 7.4,8 µg/mL
same,MIC P. aeruginosa PAO1,[4]; full MH pH 7.4,64 µg/mL
same,"MIC S. aureus, 12.5% MHB",[5],> 16 µg/mL
same,"MIC S. aureus, Full MHB",[5],> 64 µg/mL
same,MIC S. aureus COL (MRSA),[5]; 12.5% MH pH 7.4,>16 µg/mL
same,MIC S. aureus COL (MRSA),[5]; full MH pH 7.4,>64 µg/mL
same,"MIC K. pneumoniae OXA-48, 12.5% MHB",[6]; [12],4 µg/mL
same,"MIC K. pneumoniae OXA-48, full MHB",[6]; [13],32 µg/mL
same,MIC K. pneumoniae OXA-48,[6]; 12.5% MH pH 7.4,4 µg/mL
same,MIC K. pneumoniae OXA-48,[6]; full MH pH 7.4,32 µg/mL
same,"MIC P. aeruginosa PA14 4.13 (phoQ), 12.5% MHB",[7],8 µg/mL
same,"MIC P. aeruginosa PA14 4.13 (phoQ), full MHB",[7],64 µg/mL
same,MIC P. aeruginosa PA14 4.13,[7]; 12.5% MH pH 7.4,8 µg/mL
same,MIC P. aeruginosa PA14 4.13,[7]; full MH pH 7.4,64 µg/mL
VDKPPYLPRPRPPRRIYNR [sr8Cterm-Onc] (VDKPPYLPRPRPPRRIYNR-NH2; also: residues 12-19 stereorandomized (1:1 L/D mixture)),"MIC A. baumannii, 12.5% MHB",[1]; [8],4 µg/mL
same,"MIC A. baumannii, Full MHB",[1]; [9],32 µg/mL
same,MIC A. baumannii ATCC19606,[1]; 12.5% MH pH 7.4,4 µg/mL
same,MIC A. baumannii ATCC19606,[1]; full MH pH 7.4,32 µg/mL
same,"MIC E. coli, 12.5% MHB",[2]; [10],4 µg/mL
same,"MIC E. coli, Full MHB",[2]; [11],8 µg/mL
same,MIC E. coli W3110,[2]; 12.5% MH pH 7.4,4 µg/mL
same,MIC E. coli W3110,[2]; full MH pH 7.4,8 µg/mL
same,"MIC K. pneumoniae, 12.5% MHB",[3]; [8],2 µg/mL
same,"MIC K. pneumoniae, Full MHB",[3]; [9],4 µg/mL
same,MIC K. pneumoniae NCTC418,[3]; 12.5% MH pH 7.4,2 µg/mL
same,MIC K. pneumoniae NCTC418,[3]; full MH pH 7.4,4 µg/mL
same,"MIC P. aeruginosa, 12.5% MHB",[4],8 µg/mL
same,"MIC P. aeruginosa, Full MHB",[4],64 µg/mL
same,MIC P. aeruginosa PAO1,[4]; 12.5% MH pH 7.4,8 µg/mL
same,MIC P. aeruginosa PAO1,[4]; full MH pH 7.4,64 µg/mL
same,"MIC S. aureus, 12.5% MHB",[5],> 16 µg/mL
same,"MIC S. aureus, Full MHB",[5],> 64 µg/mL
same,MIC S. aureus COL (MRSA),[5]; 12.5% MH pH 7.4,>16 µg/mL
same,MIC S. aureus COL (MRSA),[5]; full MH pH 7.4,>64 µg/mL
same,"MIC K. pneumoniae OXA-48, 12.5% MHB",[6]; [12],16 µg/mL
same,"MIC K. pneumoniae OXA-48, full MHB",[6]; [13],32 µg/mL
same,MIC K. pneumoniae OXA-48,[6]; 12.5% MH pH 7.4,16 µg/mL
same,MIC K. pneumoniae OXA-48,[6]; full MH pH 7.4,32 µg/mL
same,"MIC P. aeruginosa PA14 4.13 (phoQ), 12.5% MHB",[7],8 µg/mL
same,"MIC P. aeruginosa PA14 4.13 (phoQ), full MHB",[7],64 µg/mL
same,MIC P. aeruginosa PA14 4.13,[7]; 12.5% MH pH 7.4,8 µg/mL
same,MIC P. aeruginosa PA14 4.13,[7]; full MH pH 7.4,64 µg/mL
"CC[C@H]1OC(=O)[C@H](C)[C@@H](O[C@H]2C[C@@](C)(OC)[C@@H](O)[C@H](C)O2)[C@H](C)[C@@H](O[C@@H]2O[C@H](C)C[C@H](N(C)C)[C@H]2O)[C@](C)(O)C[C@@H](C)CN(C)[C@H](C)[C@@H](O)[C@]1(C)O [AZM, azithromycin, reference compound]",MIC,"[1]; ATCC19606, pH 7.4, read-out: MIC A. baumannii ATCC19606, supplement CSV, 12.5% MH pH 7.4",32 µg/mL
same,MIC,"[1]; ATCC19606, pH 7.4, read-out: MIC A. baumannii ATCC19606, supplement CSV, full MH pH 7.4",4 µg/mL
same,MIC,"[1]; ATCC19606, read-out: MIC A. baumannii, 12.5% MHB, A. baumannii ATCC19606, 12.5% Müller–Hinton medium, 16–20 h at 37 °C",32 µg/mL
same,MIC,"[1]; ATCC19606, read-out: MIC A. baumannii, Full MHB, A. baumannii ATCC19606, full Müller–Hinton medium, 16–20 h at 37 °C",4 µg/mL
same,MIC,"[2]; W3110, pH 7.4, read-out: MIC E. coli W3110, supplement CSV, 12.5% MH pH 7.4",2 µg/mL
same,MIC,"[2]; W3110, pH 7.4, read-out: MIC E. coli W3110, supplement CSV, full MH pH 7.4",< 0.5 µg/mL
same,MIC,"[2]; W3110, read-out: MIC E. coli, 12.5% MHB, E. coli W3110, 12.5% Müller–Hinton medium, 16–20 h at 37 °C, broth microdilution",2 µg/mL
same,MIC,"[2]; W3110, read-out: MIC E. coli, Full MHB, E. coli W3110, full Müller–Hinton medium, 16–20 h at 37 °C, broth microdilution",< 0.5 µg/mL
same,MIC,"[3]; NCTC418, pH 7.4, read-out: MIC K. pneumoniae NCTC418, supplement CSV, 12.5% MH pH 7.4",1 µg/mL
same,MIC,"[3]; NCTC418, pH 7.4, read-out: MIC K. pneumoniae NCTC418, supplement CSV, full MH pH 7.4",< 0.5 µg/mL
same,MIC,"[3]; NCTC418, read-out: MIC K. pneumoniae, 12.5% MHB, K. pneumoniae NCTC 418, 12.5% Müller–Hinton medium, 16–20 h at 37 °C",1 µg/mL
same,MIC,"[3]; NCTC418, read-out: MIC K. pneumoniae, Full MHB, K. pneumoniae NCTC 418, full Müller–Hinton medium, 16–20 h at 37 °C",< 0.5 µg/mL
same,MIC,"[4]; PAO1, pH 7.4, read-out: MIC P. aeruginosa PAO1",32 µg/mL
same,MIC,"[4]; PAO1, read-out: MIC P. aeruginosa, 12.5% MHB",32 µg/mL
same,MIC,"[4]; PAO1, read-out: MIC P. aeruginosa, Full MHB",32 µg/mL
same,MIC P. aeruginosa PAO1,[4]; full MH pH 7.4,32 µg/mL
same,MIC,"[5]; pH 7.4, read-out: MIC S. aureus COL (MRSA)",< 0.5 µg/mL
same,MIC,"[5]; read-out: MIC S. aureus, 12.5% MHB",< 0.5 µg/mL
same,MIC,"[5]; read-out: MIC S. aureus, Full MHB",< 0.5 µg/mL
same,MIC S. aureus COL (MRSA),[5]; 12.5% MH pH 7.4,<0.5 µg/mL
same,MIC,"[6]; OXA48, pH 7.4, read-out: MIC K. pneumoniae OXA-48, 12.5% MHB, carbapenem-resistant, 12.5% MHB pH 7.4, 16–20 h at 37 °C",8 µg/mL
same,MIC,"[6]; OXA48, pH 7.4, read-out: MIC K. pneumoniae OXA-48, full MHB, carbapenem-resistant, full MHB pH 7.4, 16–20 h at 37 °C",8 to 16 µg/mL
same,MIC,"[6]; OXA48, pH 7.4, read-out: MIC K. pneumoniae OXA-48, supplement CSV, 12.5% MH pH 7.4",8 µg/mL
same,MIC,"[6]; OXA48, pH 7.4, read-out: MIC K. pneumoniae OXA-48, supplement CSV, full MH pH 7.4",8 to 16 µg/mL
